Measured values as given in ChEMBL document CHEMBL1629515, “Synthesis and biological evaluation of oleanolic acid derivatives as inhibitors of protein tyrosine phosphatase 1B” (J Nat Prod, 2010).

What follows are compounds tested against T1, Tyrosine-protein phosphatase non-receptor type 1 (Homo sapiens, UniProt P18031) (assay: Inhibition of recombinant PTP1B expressed in Escherichia coli BL21 after 30 mins by spectrophotometry).
T1 sequence (P18031 whole entry): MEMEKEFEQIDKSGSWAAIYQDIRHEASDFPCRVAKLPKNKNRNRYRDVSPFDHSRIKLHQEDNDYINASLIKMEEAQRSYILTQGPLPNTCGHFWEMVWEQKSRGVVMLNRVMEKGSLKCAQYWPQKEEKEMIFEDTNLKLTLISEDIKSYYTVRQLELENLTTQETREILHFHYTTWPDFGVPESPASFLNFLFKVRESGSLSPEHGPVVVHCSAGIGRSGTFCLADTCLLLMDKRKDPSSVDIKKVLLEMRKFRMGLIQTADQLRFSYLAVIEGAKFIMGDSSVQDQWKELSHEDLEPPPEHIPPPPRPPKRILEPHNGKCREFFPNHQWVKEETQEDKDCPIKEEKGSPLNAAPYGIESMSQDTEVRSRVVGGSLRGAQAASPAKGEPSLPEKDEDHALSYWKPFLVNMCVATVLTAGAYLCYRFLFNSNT
`CC1(C)CC[C@]2(COC(=O)CCCC(=O)O)CC[C@]3(C)C(=CC[C@@H]4[C@@]5(C)CCC(=O)C(C)(C)[C@@H]5CC[C@]43C)[C@@H]2C1` gave an IC50 of 6.39 µM.
Work on `CC1(C)CC[C@]2(COC(=O)c3ccccc3C(=O)O)CC[C@]3(C)C(=CC[C@@H]4[C@@]5(C)CCC(=O)C(C)(C)[C@@H]5CC[C@]43C)[C@@H]2C1` yielded an IC50 of 3.12 µM.
`CC1(C)CC[C@]2(COC(=O)CCC(=O)O)CC[C@]3(C)C(=CC[C@@H]4[C@@]5(C)CCC(=O)C(C)(C)[C@@H]5CC[C@]43C)[C@@H]2C1` showed an IC50 of 4.61 µM.
`CC1(C)CC[C@]2(COC(=O)CC(=O)O)CC[C@]3(C)C(=CC[C@@H]4[C@@]5(C)CCC(=O)C(C)(C)[C@@H]5CC[C@]43C)[C@@H]2C1` gave an IC50 of 4.11 µM.
